# Measurements published in patent US20160249841A1, “[…] ELECTROENCEPHALOGRAPHIC OSCILLATIONS” (Galenea Corp., priority 2012, published 2016).
# Columns and labels:
# Coloboma mice = settings: low doses; cited from earlier work
# wild-type mice = assay: EEG time-frequency maps of mean power during onset of exploratory activity, wild-type mice treated with PCP; format: in vivo, mouse; settings: wild-type mice treated with PCP versus untreated, FIG. 10
# Source text: Time-frequency maps were produced of mean power for untreated wild-type mice and mice treated with PCP. A signature in EEG oscillations observed in untreated mice was absent following treatment with PCP. This signature was characterized by peaks in early beta (20-30 Hz) activity, gammaLow (30-40 Hz) and gammaHi (80-100) Hz activity.
# CNhetKO mice [1] = assay: EEG oscillations in PFC during onset of exploratory activity in novel object recognition task, CNhetKO mice; format: in vivo, mouse; settings: 5 mg/kg subcutaneously
# Source text: Alterations in electroencephalographic oscillations (e.g., shifts in power) recorded from the prefrontal cortex (PFC) of mice could result from engagement of executive functions necessary for attending to and actively exploring a new environment; processes unrelated to executive function may also be involved. An integrated system was set up that combined automated real-time behavioral analysis (Topscan, CleverSys, Inc., Reston, Va.) together with multichannel electrophysiology equipment (MC_Rack, MultiChannel Systems, GmbH, Reutlingen, Germany) to analyze PFC activity during different phases of a novel object recognition (NOR) task in mice that were well habituated to the test apparatus.
# EEGs were recorded from control and calcineurin heterozygous knock-out (CNhetKO) subjects during performance of a novel-object recognition task. […] During each phase, the behavior of each subject was monitored in real time and synchronized to recorded EEG oscillations (Topscan, CleverSys Inc.). […]
# The area under the curve was computed from spectrograms to quantify power in different frequency bands [Theta (4-12 Hz) and GammaHI (65-90 Hz)] of the EEG oscillations. […]
# The effects of D4 agonist PD168077 on the EEG oscillations observed during onset of the exploratory activity in CNhetKO mice were evaluated. […] Time-frequency maps of baseline conditions (no D4 agonist) and treatment conditions were evaluated.
# CNhetKO mice [2] = assay: Novel object recognition task performance, CNhetKO mice; format: in vivo, mouse
# Procedure: EEGs were recorded from control and calcineurin heterozygous knock-out (CNhetKO) subjects during performance of a novel-object recognition task. Control and CNhetKO mice were exposed to two identical objects during a 10 min sample phase. After a 24 hour delay period, subjects were exposed to a familiar object and a novel object. During each phase, the behavior of each subject was monitored in real time and synchronized to recorded EEG oscillations (Topscan, CleverSys Inc.). As depicted in FIG. 4, an exploratory activity occurred when a subject's nose was orientated towards an object and was within a 2 cm radius surrounding the object for at least 200 msec, while the subject's center of mass (‘*’) was outside of 2 cm radius. […]
# The effects of D4 agonist PD168077 on the EEG oscillations observed during onset of the exploratory activity in CNhetKO mice were evaluated. CNhetKO subjects were treated with PD 168077 (5 mg/kg) subcutaneously and EEG oscillations associated with exploratory activity in a novel object recognition task were analyzed. Exploratory activity in the presence of novel objects and familiar objects was analyzed for up to 90 min post-injection. Time-frequency maps of baseline conditions (no D4 agonist) and treatment conditions were evaluated.
smiles,measurement,setting,value
C[C@H](N)Cc1ccccc1 [D-amphetamine],Hyperkinesis,Coloboma mice,ameliorated
"c1ccc(C2(N3CCCCC3)CCCCC2)cc1 [PCP, Phencyclidine]","Signature in EEG oscillations (peaks in early beta 20-30 Hz, gammaLow 30-40 Hz, gammaHi 80-100 Hz)",wild-type mice,absent
Cc1cccc(C(=O)NCN2CCN(c3ccccc3C#N)CC2)c1 [PD 168077],Signature of EEG oscillation observed during onset of the exploratory activity (time-frequency maps),"CNhetKO mice [1]; CNhetKO mice, up to 90 min post-injection, versus baseline (no D4 agonist)",restored the signature of EEG oscillation
same,Gamma responses (GammaHi 65-90 Hz EEG power) in PFC elicited by object exploration,"CNhetKO mice [1]; CNhetKO subjects, analyzed up to 90 min post-injection, FIG. 6",transiently restored normal Gamma responses
same,Time spent exploring novel objects versus familiar objects,"CNhetKO mice [2]; CNhetKO mice, versus cyclodextrin control, FIG. 8B",significantly more time exploring novel objects compared with familiar objects
same,Performance in the novel object recognition cognitive paradigm,"CNhetKO mice [2]; CNhetKO subjects, 5 mg/kg s.c. 30 min prior to familiarization phase and again 30 min prior to test phase after 24 hr",essentially completely restored performance
